# Measurements published in article PMC4836675, “Tetrabromobisphenol A Is an Efficient Stabilizer of the Transthyretin Tetramer” (PLoS ONE, 2016).
# Entries after “also recorded” stand apart in the source; their conditions may differ. Where two headings read alike, the source gives them in different places.
# Assays:
# WT-TTR = biological target: T1, WT-TTR (Homo sapiens, UniProt P02766); test: Turbidity assay of TTR aggregation at low pH; type: biochemical; settings: WT-TTR 15 μM tetramer, compound 15 μM, pH 4.5, 72 h
# T1 construct: made in house; host or cells: E. coli BL21
# Procedure: (§1) Amyloid formation by TTR can be induced at low pH, which results in disruption of the tetramer and the subsequent formation of aggregates. This event can be monitored by a simple turbidity measurement.
# (§2) Aggregation of WT-TTR and V30M-TTR was initiated by lowering the pH to 4.5 using a sodium-acetate/acetic acid buffer followed by incubation for 72 h. The percentage of aggregation relative to the control was monitored by measuring the turbidity at 400 nm.
# (§3) In order to prevent microbial growth, all samples and controls were supplemented with 0.05% NaN3. Dissociation and subsequent aggregation of TTR was initiated by adding 50 mM sodium acetate at pH 4.5 and incubating at 37°C under agitation conditions. The formation of TTR aggregates was monitored by turbidity measurement at 400 nm in a TECAN Safire plate reader after incubating for 72 h. All experiments were performed five times.
# V30M-TTR = biological target: T2, V30M-TTR (Homo sapiens, UniProt P02766, V50M); test: Turbidity assay of TTR aggregation at low pH; type: biochemical; settings: V30M-TTR 15 μM tetramer, compound 15 μM, pH 4.5, 72 h
# T2 construct: made in house; host or cells: E. coli BL21
# Procedure: as §1, §2, §3
# [1] = set-up: method as in earlier work; settings: steady state after 14 days of daily administration; cited from earlier work
# [2] = system: SH-SY5Y neuroblastoma cells; test: TTR-mediated cytotoxicity, resazurin cell-viability assay; settings: TTR 15 μM, compound 15 μM, 72 h
# Procedure: The cytotoxic effect of TTR was monitored by a decrease in the conversion of resazurin to resorufin.
# Cell viability was measured with a resazurin assay [46]. Data are reported as the mean cell viability ± the standard deviation (n = 3, ** p < 0.01; *** p < 0.001). […] The statistical significance was assessed using one-way ANOVA.
# The human neuroblastoma cell line SH-SY5Y was obtained from the European Collection of Cell Cultures (Centre for Applied Microbiology and Research). SH-SY5Y cells were cultured according to a previous report [79] with minor modifications. The cells were grown in MEM and GlutaMax medium (Gibco) and supplemented with 10% (v/v) fetal bovine serum (Gibco), 100 units/mL penicillin, 100 μg/mL streptomycin (Gibco), and 1% non-essential amino acid solution (Gibco). Cultures were maintained in an incubator at 37°C with a humidified atmosphere of 5% CO2. […] All experiments were performed in triplicate.
# plasma TTR = plasma TTR (Homo sapiens, UniProt P02766); test: Drug efficacy/selectivity in human plasma (urea denaturation, western blot of monomeric TTR)
# Procedure: The ability of a drug to stabilize the tetrameric form of TTR by binding to the hydrophobic hormone binding pockets at the dimer interface of the tetramer is directly correlated to the drug’s binding affinity.
# The dissociation of plasma TTR was initiated by the addition of urea at a final concentration of 4.0 M. The dissociation to monomeric TTR was monitored by western blot and quantified with the ImageJ 2.0 software.
# Briefly, plasma was buffered by the addition of 20 μL phosphate buffer from a 1 M stock solution to reach a final concentration of 20 mM, pH 7.4. […] To initiate the denaturation of the TTR tetramer, urea was added to a final concentration of 4 M followed by 18 h of incubation at 25°C. In the absence of a stabilizing ligand, this treatment causes dissociation and monomerization of the TTR tetramer. […] The monomeric band on the membrane was visualized by western blot according to standard protocols using a rabbit anti-TTR antibody (anti-prealbumin, DAKO) followed by a horseradish peroxidase-labeled antibody (anti-rabbit HRP, GE Healthcare). Nonspecific binding of antibodies was prevented by the addition of 5% fat-free powdered milk and 0.3% Tween-20. Enhanced chemiluminescence (ECL-prime, GE Healthcare) was used to visualize the bound antibodies. The bands containing the TTR monomer were quantified through densitometric analysis using the ImageJ 1.48 program.
# TTR = biological target: T3, TTR (Homo sapiens, UniProt P02766); test: Isothermal titration calorimetry (ITC); type: binding
# T3 construct: made in house; host or cells: E. coli BL21
# Procedure: ITC experiments were performed using an Auto-iTC200 (MicroCal) at 25°C. […] For each experiment, 19 automated injections of 2 μL and a duration 0.8 s were performed with 300 s intervals between each injection and with a stirring speed of 1000 rpm. The titrations were done with high feedback and a filter period of 5 s and were repeated twice. Calorimetric data were plotted and fitted using the standard single-site binding model.
# [3] = cited from earlier work
# Sprague—Dawley rats = system: Sprague—Dawley rats; set-up: method as in PMID 25523853; settings: prolonged daily oral 100, 300, or 1000 mg·kg−1·day−1; cited from earlier work
# [4] = system: Salmonella typhimurium, Escherichia coli, and yeast cells; settings: with and without metabolic activation; cited from earlier work
# [5] = cited from earlier work; for Serum concentration: after seven days, 12 hours after last dose
# [6] = rats, single oral dose 300 mg/kg body weight
smiles,measurement,setting,value
"O=C(O)c1ccc2nc(-c3cc(Cl)cc(Cl)c3)oc2c1 [Tafamidis, tafamidis]",Aggregation of TTR at low pH (turbidity at 400 nm),WT-TTR,prevents the aggregation
same,Aggregation of TTRVal30Met at low pH (turbidity at 400 nm),V30M-TTR,prevents the aggregation
same,Clinically beneficial plasma concentration,[1],3.5 to 8.5 µM
same,Cell survival in presence of cytotoxic TTR,[2],increased cell survival to essentially that of the untreated control cells
same,Saturation level of TTR,"plasma TTR; from IC50 around 5 μM and tafamidis plasma concentration 3.5–8.5 μM, TTR 4 μM",31–56%
"CC(C)(c1cc(Br)c(O)c(Br)c1)c1cc(Br)c(O)c(Br)c1 [TBBPA, 2,2’,6,6’-tetrabromo-4,4’-isopropylidentediphenol]",Kd,"TTR; 25°C, assuming independent binding sites (single-site model), read-out: Binding affinity to TTR (Kd)",20 nM
same,Kd,"TTR; negative cooperativity, first site, read-out: Kd1",6 nM
same,Kd,"TTR; read-out: Kd2, negative cooperativity, second site",975 nM
same,Aggregation of TTR at low pH (turbidity at 400 nm),WT-TTR,efficiently prevents the aggregation
same,Aggregation of TTRVal30Met at low pH (turbidity at 400 nm),V30M-TTR,efficiently prevents the aggregation
same,Oral bioavailability,"[3]; animals, oral intake, compared to tafamidis and diflunisal",low bioavailability
same,Half-lives,"[3]; oral 200, 500 and 1000 mg/kg",7.5 to 9.5 h
same,Half-life,[3]; [6],around 13 h
same,Time of maximal serum concentration,[3]; [6],3 h
same,Elimination half-life,"[3]; single oral dose 250 mg/kg body weight, 14C-TBBPA, non-compartmental model",around 4.5 h
same,Time of maximal plasma concentration post-dose,"[3]; single oral dose 250 mg/kg body weight, 14C-TBBPA",127 min
same,Mortality and neuropathological ailments,Sprague—Dawley rats,did not result in increased mortality or the development of neuropathological ailments
same,Genotoxicity in Ames tests,[4],negative results
same,Cell survival in presence of cytotoxic TTR,[2],increased cell survival to essentially that of the untreated control cells
same,IC50,"plasma TTR; IC50 plasma, human plasma, 2 h incubation, 4 M urea, three independent experiments",3300 ± 500 nM
same,Saturation of the high-affinity binding site of TTR,"plasma TTR; at a TBBPA plasma concentration of 5 μM, based on the IC50 value",48%
same,Stabilization of TTR tetramer in human plasma,"plasma TTR; human plasma, 4 M urea",effectively stabilizes TTR at a stoichiometric ratio in plasma; also recorded: pronounced stabilizing effect on TTR is observed even at concentrations as low as 4 μM
"O=C(O)c1cc(-c2ccc(F)cc2F)ccc1O [Diflunisal, diflunisal]",Aggregation of TTR at low pH (turbidity at 400 nm),WT-TTR,prevents the aggregation
same,Aggregation of TTRVal30Met at low pH (turbidity at 400 nm),V30M-TTR,prevents the aggregation
same,Serum concentration,[5]; 250 mg twice per day,145 µM
same,Serum concentration,[5]; 500 mg twice per day,420 µM
same,Bioavailability,[5]; oral administration,good
same,Cell survival in presence of cytotoxic TTR,[2],increased cell survival to essentially that of the untreated control cells
